In patent publication US20070054868A1, “Synergistic polyphenol compounds, compositions thereof, and uses thereof” (The Trustees of Columbia University in the City of New York, priority 2005, published 2007):

Assays:
[1] = tested on: EGFR, HER2, HER3, Akt and ERK; assay: Western blot analysis in SW837 cells, total levels of the respective proteins; type: cell-based, human; conditions: 20 μg/mL, during the time course
Excerpt: (§1) Total cellular protein was extracted and equivalent amounts of protein can be determined by western blot analysis using the methods described in Suzui, et al., Cancer Res., 62:3997-4006 (2002). The primary antibodies for several proteins are described in Masuda et al., Clin Cancer Res., 7:4220-4229 (2001); Masuda et al., Clin Cancer Res., 9:3486-3491 (2003); and Shimizu et al., Clin Cancer Res., 11:2735-2746 (2005). The primary antibodies for HER3 (2F12) and COX-2 (PG27) were purchased from Upstate Cell Signaling Solutions (Charlottesville, Va.) and Oxford Biochemical Research (Oxford, Mich.), respectively. To examine the levels of expression of the phosphorylated (i.e. activated) form of the HER3 protein (p-HER3), cellular lysates (1 mg/mL) were incubated with 4 μg anti-HER3 antibody overnight at 4° C. with slow agitation, and immune complexes were then precipitated by adding protein A/G agarose (sc-2003, Santa Cruz Biotechnology, Santa Cruz, Calif.). After incubating for 2 hours at 4° C., the beads were washed with lysis buffer, and bound proteins were eluted into the sample buffer and subjected to western blot analysis, as described above. The p-HER3 protein was then detected by using an anti-phospho-tyrosine antibody (PY-20-HRP, BD Transduction Laboratories, San Diego, Calif.). An antibody to actin was used as a loading control. […]

[2] = target: T1, EGFR (Homo sapiens, UniProt P00533); assay: Binding of Alexa 488-labeled EGF to the cell surface receptor; conditions: HT29 cells pre-treated with test substance
T1 construct: endogenous in cells; host or cells: HT29 colon cancer cells
Description: These effects were detected with as little as […] of EGCG, and within 5 minutes. Phosphorylation of EGFR, ERK1, ERK2, and AKT were suppressed in cells treated with methyl-β-cyclodextrin, which depletes plasma membrane cholesterol. […] In addition, the inhibitory effect of EGCG on phosphorylation of EGFR was not blocked by the addition of cholesterol on the growth medium. These findings provide evidence that EGCG can alter membrane domain organization in colon cancer cells ant that this is not due to cholesterol depletion. It was noted that pre-treatment of the cells with EGCG or Poly E inhibited the binding of Alexa 488-labeled EGF to the cell surface receptor EGFR.

[3] = tested on: p-HER3; assay: Immunoprecipitation and western blot analysis in SW837 cells; type: cell-based, human
Excerpt: as §1

[4] = tested on: NF-κB promoter; assay: Transient transfection luciferase reporter assay in SW837 cells; type: cell-based, human; conditions: 10 and 20 μg/mL, 24 hours
Description: (§2) Reporter assays were performed performed using the methods described in Suzui, et al., Cancer Res., 62:3997-4006 (2002). The COX-2-luciferase reporter plasmid phPES2(−327/+59) was provided by the National Cardiovascular Research Institute (Osaka, Japan). The pAP-1 luciferase reporter plasmid was provided by the National Cancer Institute (Bethesda, Md.). The NF-[…]B promoter luciferase reporter plasmid […]NF-[…]B-Luc is described in Masuda et al., Clin. Cancer Res. 7:4220-4229 (2001). One μg of DNA of the indicated luciferase reporter plasmid was transfected into SW837 human colon cancer cells (3.0×10^5 cells/35-mm diameter dish) using Lipofectin reagent (Invitrogen) in opti-MEM I medium (Invitrogen). After 24 hours the cells were treated with EGCG (0, 10, or 20 μg/mL) for 24 hours, and extracts were then prepared. Luciferase activities were determined using a luciferase assay system ([…]., Madison, Wis.). In all of these reporter assays the cells were also cotransfected with a CMV-[…]-galactosidase ([…]-gal) reporter. Luciferase activities were normalized with respect to the […]-gal activities, to correct for differences in transfection efficiency, using the methods described in Suzui, et al., Cancer Res., 62:3997-4006 (2002).

[5] = tested on: COX-2 promoter; assay: as above; type: cell-based, human; conditions: 10 and 20 μg/mL, 24 hours
Description: as §2

[6] = tested on: AP-1 promoter; assay: as above; type: cell-based, human; conditions: 10 and 20 μg/mL, 24 hours, inhibition most apparent for this promoter
Description: as §2

[7] = tested on: COX-2 mRNA; assay: Semiquantitative RT-PCR analysis in SW837 cells; type: cell-based, human; conditions: 20 μg/mL
Description: RNA extraction and semiquantitative RT-PCR analysis were performed using the methods described in Suzui, et al., Cancer Res., 62:3997-4006 (2002). Total RNA was isolated from SW837 human colon cancer cells using Trizol reagent (Invitrogen) according to the manufacturer's instructions. cDNA was amplified from 1 μg of total RNA using SuperScript one-step RT-PCR with the platinum Taq system (Invitrogen). PCR was conducted for 25 cycles in a thermal controller (Programmable Thermal Controller; MJ Research Inc., Watertown, Mass.). The COX-2 specific primer sets […]-2 ([NT]) and […]-2 ([NT]) were designed using the sequence described in Hla et al., Proc. Natl. Acad. Sci. USA, 89:7384-7388 […]. Actin specific primer sets and the amplification cycle conditions were as described in Suzui, et al., Cancer Res., 62:3997-4006 (2002). The intensities of mRNA bands were quantified using NIH Image software version 1.62.

[8] = tested on: IGFBP-3; assay: Production of IGFBP-3 in HepG2 cells; type: cell-based, human; conditions: 20 μg/mL
Description: The cells were treated with […] EGCG at 0, 3, 6, 12, 24 and 48 hours, and cell extracts were examined by Western blot analysis using the respective antibodies, or were examined by semiquantitative RT-PCR analysis using IGFBP-3 or IGF-1 specific primers.
Using the MTT cell proliferation assay described in Example 21, and substituting HepG2 human liver cancer cells in place of SW837 cells, the effects of EGCG (20 μg/mL), an illustrative Synergistic Polyphenol Compound, on the production of IGF-1, IGF-2 and IGFBP-3 was determined. […] Accordingly, the Synergistic Polyphenol Compounds are useful for treating or preventing liver cancer.

Substance: (−)-epigallocatechin gallate
- total levels of the respective proteins [1]: no significant changes
- binding of Alexa 488-labeled EGF to the cell surface receptor EGFR [2]: inhibited
- levels of the p-HER3 protein ([3]; 1.0 μg/mL, 96 hours): decrease
- levels of the p-HER3 protein ([3]; 20 μg/mL, within 6 hours): marked decrease
- NF-κB luciferase reporter activity [4]: inhibition
- COX-2 luciferase reporter activity [5]: inhibition
- AP-1 luciferase reporter activity [6]: inhibition
- cellular level of the COX-2 mRNA ([7]; at 48 hours): marked decrease
- cellular level of the COX-2 mRNA ([7]; beginning at about 6 hours): progressive decrease
- production of IGFBP-3 [8]: increased the production
